These results are taken from PMC5085249, “The Diguanylate Cyclase HsbD Intersects with the HptB Regulatory Cascade to Control Pseudomonas aeruginosa Biofilm and Motility” (PLoS Genetics, 2016).

This experiment deals with T1, HsbD (PA3343) (Pseudomonas aeruginosa, UniProt Q9HYQ2).
T1 construct: His-HsbD overexpressed in E. coli BL21(DE3), whole-cell lysate; native protein 389 aa, six predicted TM domains (52-206), GGDEF domain 252-389; tag kept
Description: DRaCALA (nitrocellulose, […]-labelled ligand). It counts as binding. The note with it: 4 nM 32P-c-di-GMP; E. coli whole-cell lysate; 40 mM Tris pH 7.5, 100 mM NaCl, 10 mM MgCl2; allosteric inhibitory I-site; labelled compound.

T1 sequence (Q9HYQ2 entry or part of it): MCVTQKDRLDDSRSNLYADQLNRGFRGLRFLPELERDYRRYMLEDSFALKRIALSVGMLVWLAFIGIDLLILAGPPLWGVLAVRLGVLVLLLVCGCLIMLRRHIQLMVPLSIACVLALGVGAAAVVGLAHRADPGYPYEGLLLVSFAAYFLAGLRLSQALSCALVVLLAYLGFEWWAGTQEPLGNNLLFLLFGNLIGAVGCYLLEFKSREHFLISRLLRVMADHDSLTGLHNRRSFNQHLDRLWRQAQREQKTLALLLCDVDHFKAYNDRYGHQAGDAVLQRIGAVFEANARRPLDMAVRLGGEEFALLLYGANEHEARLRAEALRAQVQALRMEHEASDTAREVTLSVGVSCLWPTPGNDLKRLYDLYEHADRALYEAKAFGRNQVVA

For `Nc1nc2c(ncn2[C@@H]2O[C@@H]3COP(=O)(O)O[C@H]4[C@@H](O)[C@H](n5cnc6c(=O)[nH]c(N)nc65)O[C@@H]4COP(=O)(O)O[C@H]3[C@H]2O)c(=O)[nH]1` [c-di-GMP], the fraction bound result was “Significant c-di-GMP binding was observed with the construct encoding wild-type HsbD”.
